Experimental data: PubChem BioAssay AID849 (SRMLSC, 2007)
Calls of active or inactive are those of the source. How the calls were made is not given here.

Each molecule was assayed on Saccharomyces cerevisiae lifespan shortening, growth inhibition (assay: yeast lifespan shortening compounds, dose response (AID 849);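 further: yeast growth read as optical density after two days at 30 degrees C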).

SMILES	IC50
O=c1oc2ccccc2cc1-c1cn2cccnc2n1	> 100 µM (inactive)
CCc1ccc(C2NC(=S)NC3=C2C(=O)N(c2ccccc2OC)C(c2ccc(CC)cc2)N3)cc1 (stereo not given)	> 100 µM (inactive)
CC1CCN(c2nc(/C=C/c3ccccc3)nc3ccccc23)CC1	24.7 µM
Cc1ccc(C(NC(=O)C(C)C)c2cc([N+](=O)[O-])c3cccnc3c2O)cc1 (stereo not given)	11.4 µM
Cn1c2ccccc2c2cc(C(=O)O)ccc21	25.4 µM
Cc1cccnc1Nc1nc(-c2ccccn2)cs1	45.7 µM
Cc1nc(Cl)c2oc3ccccc3c2n1	> 100 µM (inactive)
Cc1cc2c(cc(C(=O)O)n2C)s1	36.5 µM
COc1ccccc1OCCN1CSC(=S)N(C)C1	11.8 µM
OC(CNCCc1ccc(C(F)(F)F)cc1)COc1ccc2ccccc2c1 (stereo not given)	> 100 µM (inactive)
Cc1c(Cl)cccc1N=Cc1ccc([N+](=O)[O-])s1	> 100 µM (inactive)
O=C(c1ccc(C(=O)N2CCCc3ccccc32)s1)N1CCCc2ccccc21	35.6 µM
O=C(COc1ccc(Cl)cc1)NC1=NN(c2ccccc2)C(=O)C1	> 100 µM (inactive)
c1ccc(-c2nc(-n3ccnc3)nc(-n3ccnc3)n2)cc1	34.3 µM
COc1ccc(N/N=C(\C#N)C(N)=O)cc1	> 100 µM (inactive)
O=c1c2ccccc2nc2sc3ccccc3n12	27.8 µM
CCN(CC)c1ccc(S(=O)(=O)N2CCOCC2)cc1NC(=O)CSc1cccc[n+]1[O-]	16.7 µM
CCCc1cc(C(=O)NC2CCCCC2)no1	> 100 µM (inactive)
CC(Nc1ccc(Br)cn1)c1cc(Cl)ccc1O (stereo not given)	> 100 µM (inactive)
C=CCN1C(=O)/C(=C/c2cccs2)C(=O)NC1=S	17.6 µM
CN1CCc2cc3c(c4c2[C@H]1[C@H](O)c1ccccc1-4)OCO3	35.4 µM
COC(=O)Cn1c2ccc(C)cc2c2nc(C)sc21	> 100 µM (inactive)

SMILES	IC50
Cc1cc(C(=O)N/N=C/c2cccc([N+](=O)[O-])c2O)n[nH]1	> 100 µM (inactive)
O=c1cc(C(F)(F)F)[nH]c2c(C(F)(F)F)cccc12	9.03 µM
O=C(Oc1c(Cl)cc(Cl)c2cccnc12)c1cccs1	11.1 µM
Cc1cccc(Nc2nc(-c3ccccn3)cs2)n1	20.3 µM
O=[N+]([O-])c1cc(/C=N/O)ccc1Sc1ccccc1	> 100 µM (inactive)
O=C(CC(=O)c1cc(Cl)ccc1O)c1ccccc1	> 100 µM (inactive)
O=C1c2cccc3c(Cl)ccc(c23)C(=O)N1O	21.7 µM
Cc1ccc(C(C[N+](=O)[O-])n2nc(C)cc2C)cc1 (stereo not given)	19.1 µM
CCOC(=O)c1c(N)sc(C(O)(C(F)(F)F)C(F)(F)F)c1-c1ccc(F)cc1	> 100 µM (inactive)
O=[N+]([O-])c1ccc(Cl)c(S(=O)(=O)N2CCCCCC2)c1	37.4 µM
Cc1nc2cc3ccccc3cc2c(=O)[nH]1	> 100 µM (inactive)
Cc1cccc(N=C2Sc3nc4c(C)c(C)ccc4cc3CN2CCN2CCOCC2)c1	44.7 µM
Cc1nc2c(c(C)c1C#N)C(=O)c1ccccc1-2	38.8 µM
Cc1cccc(C(=O)O/N=C/c2c(N3CCOCC3)n(C)c3ccccc23)c1	35.3 µM
COc1ccc2nc(/N=C(\N)NC(=O)Nc3ccccc3)nc(C)c2c1	50.4 µM
O=[N+]([O-])c1ccc(C2Oc3ccccc3C3CC(c4ccccc4)=NN32)s1 (stereo not given)	> 100 µM (inactive)
OC(CN1CCN(c2ccccn2)CC1)Cn1c2ccc(Cl)cc2c2cc(Cl)ccc21 (stereo not given)	47.5 µM
Oc1ccccc1NCC(O)Cn1ccc2ccccc21 (stereo not given)	> 100 µM (inactive)
Cc1ccc(-c2cc(-c3ccccc3C)[nH]n2)c(O)c1	15.8 µM
Clc1ccc2nnnc(-c3ccccc3)c2c1	38.8 µM
CCC(C)N1CC23C=CC(O2)C(C(=O)OC)C3C1=O (stereo not given)	> 100 µM (inactive)
CCCCCCCCCCCCCCCC[n+]1cccc(C(=O)N(CC)CC)c1	3.69 µM

SMILES	IC50
Oc1c(Cl)cc(Cl)c2c1NCCC2	17.4 µM
CC1=NOC(=O)/C1=C/c1ccc(-c2ccc(Cl)cc2)o1	> 100 µM (inactive)
C=C(C)COc1ccc(-c2[nH]ncc2-c2ccccc2)c(O)c1	20.4 µM
C/C(=N\Nc1ccc(Cl)c(Cl)c1)c1ccc(-n2ccnc2)cc1	30.1 µM
Cc1ccc(-c2cc(C(=O)N3N=C(C(F)F)CC3(O)C(F)F)c3ccccc3n2)cc1C (stereo not given)	> 100 µM (inactive)
O=C(O)c1ccc(N(c2ccccc2)c2ccccc2)cc1	> 100 µM (inactive)
COc1ccc(-n2c(Cc3cccn3C)nnc2SCC(=O)N2CCCC2)cc1	> 100 µM (inactive)
NNC(=O)c1ccc(COc2ccc3c(c2)CCC3)o1	15.1 µM
O=C1CCN2C=Nc3cccc4ccc1c2c34	32.9 µM
O=C(Nc1nc(-c2ccccn2)cs1)c1ncc(Cl)c(Cl)c1Cl	> 100 µM (inactive)
Cc1ccc2c(c1)-c1nc3ccccc3cc1C2=NC1CCCCC1	35.6 µM
COc1cccc(CC(=O)Nc2ccc3nc(C)sc3c2)c1	35 µM
CC1=C/C(=N\OS(=O)(=O)c2ccccc2)C(C)=CC1=O	1.54 µM
O=C(N/N=C\c1cccc([N+](=O)[O-])c1O)C1COc2ccccc2O1 (stereo not given)	24.8 µM
C=CCNC1=C(Cl)C(=O)c2ccccc2C1=O	> 100 µM (inactive)
Cc1nn(-c2ccc(F)cc2)c2sc(C(=O)O)cc12	30.9 µM
CNc1nnc(-c2cc3cc(Cl)ccc3oc2=O)s1	> 100 µM (inactive)
COc1ccccc1N1CCN(C(CNC(=O)c2ccco2)c2cccnc2)CC1 (stereo not given)	> 100 µM (inactive)
Clc1ccc(COC(Cn2ccnc2)c2ccc(Cl)cc2Cl)cc1 (stereo not given)	0.809 µM
COc1ccc(NCc2ccc([N+](=O)[O-])s2)c(OC)c1	41.1 µM
O=C(CCSc1nnc(-c2ccncc2)o1)Nc1ccc(Cl)cc1	37.7 µM
O=C1c2cccc3cccc(c23)C(=O)N1c1cccnc1	29.5 µM

SMILES	IC50
O=C(CC(=O)c1ccccc1O)c1ccc(F)cc1	> 100 µM (inactive)
O=C(/C(=C/O)N=Nc1ccccc1)c1ccncc1	14.5 µM
c1ccc2nc3ccccc3nc2c1	16.8 µM
Cc1nc(N/N=C/c2ccccn2)sc1C	33.7 µM
CCCS(=O)(=O)c1nnnn1-c1cccc(OC)c1	3.4 µM
CCCCNC(=S)NCc1ccc2c(c1)cc(C)n2C	> 100 µM (inactive)
Cc1cc(O)c(/C=N/Nc2cccc(Cl)c2)c(=O)o1	40.3 µM
Cc1cccc(C(=O)NC(=S)NNC(=O)c2cccs2)c1	30.6 µM
Cc1ccc(C)c(-n2nnnc2SCC(=O)Nc2cccc(-c3nnc4n3CCCCC4)c2)c1	> 100 µM (inactive)
CC1=C(C)CC2C(=O)N(c3cccc4ccccc34)C(=O)C2C1 (stereo not given)	> 100 µM (inactive)
O=C1CCCC/C1=N\Nc1ccc(OCc2ccccc2)cc1	13.3 µM
Cc1cc2sc(C(=O)O)c(C)c2s1	41.6 µM
Oc1c(Br)cc(Br)cc1Oc1ccc(Br)cc1Br	> 100 µM (inactive)
Cc1cc(-c2ccco2)c(C#N)c2nc3ccccc3n12	5.77 µM
CCN1/C(=C/c2ccc3cccc(C)c3[n+]2CC)Sc2ccccc21	9.8 µM
COc1ccccc1NC(=O)Cc1noc(CSc2cccc[n+]2[O-])n1	23.2 µM
Cc1ccc(NC(=S)Nc2ccc(Cl)c(Cl)c2)c(OC(F)F)c1	22.2 µM
O=C(c1cc(-c2ccccc2O)on1)N1CCc2ccccc2C1	> 100 µM (inactive)
CC1CCC2(CC1)NC(=S)N(c1ccccc1)N2 (stereo not given)	23.6 µM
